Data from publication PMC12144862, “Structural Basis of Sequential Enantioselective Epoxidation by a Flavin-Dependent Monooxygenase in Lasalocid A Biosynthesis” (Angewandte Chemie (International ed. in English), 2025).

Target: T1, Lsd18 (Streptomyces lasalocidi, UniProt B5M9L6)
T1 construct: recombinant Lsd18 with FAD; two molecules in the asymmetric unit
Assay: LC-MS epoxidation assay
Type: biochemical
Details: forms mono- and bisepoxide

T1 sequence (B5M9L6 whole entry): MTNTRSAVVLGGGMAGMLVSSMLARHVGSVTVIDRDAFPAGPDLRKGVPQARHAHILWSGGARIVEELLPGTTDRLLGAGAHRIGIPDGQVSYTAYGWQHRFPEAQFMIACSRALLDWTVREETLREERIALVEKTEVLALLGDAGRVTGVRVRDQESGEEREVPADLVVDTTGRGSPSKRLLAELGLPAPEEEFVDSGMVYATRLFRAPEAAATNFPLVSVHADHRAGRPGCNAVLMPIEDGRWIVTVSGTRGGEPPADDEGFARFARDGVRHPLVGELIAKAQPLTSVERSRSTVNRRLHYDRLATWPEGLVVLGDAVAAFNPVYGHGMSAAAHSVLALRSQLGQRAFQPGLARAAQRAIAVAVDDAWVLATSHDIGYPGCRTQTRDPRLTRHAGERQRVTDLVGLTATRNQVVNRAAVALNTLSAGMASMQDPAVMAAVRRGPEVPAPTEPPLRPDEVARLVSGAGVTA

Question: `CC(=O)OC/C=C(\C)CC/C=C(\C)CCC=C(C)C` [farnesyl acetate] was tested. Which LC-MS epoxidation assay did it give?
Answer: Lsd18 transforms farnesyl acetate, a natural sesquiterpene, into a bisepoxide
